This is an account of results in ChEMBL document CHEMBL4613277, “Improving the Potency of N-Aryl-2,5-dimethylpyrroles against Multidrug-Resistant and Intracellular Mycobacteria” (ACS Med Chem Lett, 2020).

Structures are written as SMILES. Converted amounts (≈) assume the structure as drawn. The source made the active and inactive calls. The calls are words filed in the database; no cut-off is given here.

In data set [1] the test system is Mycobacterium tuberculosis. Briefly: Bacteriostatic activity against Mycobacterium tuberculosis H37Rv assessed as reduction in bacterial growth at 0.07 ug/ml incubated for 3 to 4 weeks by time kill assay. Type of data set: functional, organism-based.
Data set [2] deals with Mycobacterium tuberculosis. Kind of data set: Bactericidal activity against Mycobacterium tuberculosis H37Rv assessed as reduction in bacterial growth at 0.35 ug/ml incubated for 3 to 4 weeks by time kill assay. Type of data set: functional, organism-based.
In data set [3] the test system is Mycobacterium tuberculosis. Kind of data set: Antimycobacterial activity against Mycobacterium tuberculosis H37Rv infected in mouse J774.1 cells assessed as reduction in bacterial colony at 1 to 10 times MIC incubated for 72 hrs by colony counting method. Type of data set: functional, organism-based.
Data set [4] has as its system Mycobacterium tuberculosis. Kind of data set: Antimycobacterial activity against Mycobacterium tuberculosis H37Rv assessed as reduction in bacterial growth incubated for 7 days by resazurin based assay. Type of data set: functional. The settings on record: 168 h.
Data set [5] can be described thus: Selectivity index, ratio of GI50 for mouse Macrophage cells to MIC for Mycobacterium tuberculosis H37Rv. Type of data set: toxicity.
Data set [6] in a line: Cytotoxicity against mouse macrophage cells assessed as growth inhibition incubated for 48 hrs by resazurin based assay. Type of data set: cell-based. For orientation: The colour change of resazurin is a common sign of viable cells or microbes.
Data set [7] can be described thus: Acute toxicity in Galleria mellonella wax moth larve assessed as mortality by measuring melanization at 12 mg/kg observed for 5 days. Type of data set: organism-based. The settings on record: in vivo, 120 h.
The nature of data set [8]: Acute toxicity in Galleria mellonella wax moth larve assessed as adverse effect at 12 mg/kg observed for 5 days. Type of data set: organism-based. The settings on record: in vivo, 120 h.
Data set [9] concerns Mycobacterium tuberculosis. Briefly: Bacteriostatic activity against Mycobacterium tuberculosis H37Rv assessed as reduction in bacterial growth at 0.32 ug/ml incubated for 3 to 4 weeks by time kill assay. Type of data set: functional, organism-based.
The subject of data set [10] is Mycolicibacterium aurum. Briefly: Antimycobacterial activity against Mycobacterium aurum assessed as reduction in bacterial growth incubated for 48 hrs by HT-SPOTi assay. Type of data set: functional.
Data set [11] has as its system Mycolicibacterium aurum. Briefly: Antimycobacterial activity against Mycobacterium aurum infected in mouse RAW264.7 cells assessed as reduction in bacterial growth incubated for 48 hrs by HT-SPOTi assay. Type of data set: functional.

For the compound `COc1c(N2C[C@@H]3CCCN[C@@H]3C2)c(F)cc2c(=O)c(C(=O)O)cn(C3CC3)c12`, the result in data set [1] was inactive. The result in data set [2] was Active. Further, the inhibition result in [3] is “Active”.
Usually MIC stands for the least concentration at which growth counts as inhibited. For `Clc1ccc2nc(CNC3CCCCC3)cn2c1`, the MIC in [4] was over 25 µg/mL.
As to `Cc1nn(-c2ccc(Cl)cc2)c(C)c1CNC1CCCCC1`, the MIC in [4] is over 25 µg/mL.
The term GI50 denotes the concentration giving 50% growth inhibition. Turning to `Cc1cc(CN[C@H]2C[C@@H]3CC[C@H]2C3)c(C)n1-c1ccc(Cl)cc1`, the selectivity ratio in data set [5] fell in the range of 47 to 94. In data set [6], the GI50 at 48 h is 23.4 µg/mL (≈ 71.1 µM). In addition, the MIC in data set [4] is 0.25 to 0.5 µg/mL (≈ 0.76 to 1.52 µM).
For the compound `Cc1nn(-c2ccc(Cl)cc2)c(C)c1CNCc1ccccc1`, the MIC in [4] was over 25 µg/mL.
With `COc1ccc(-n2c(C)cc(CNC3CCCCC3)c2C)cc1`, in [5], the selectivity ratio was 16 to 32. In addition, in [6], the GI50 at 48 h is 3.9 µg/mL (≈ 12.5 µM). In [4], the MIC fell in the range of 0.12 to 0.25 µg/mL (≈ 0.384 to 0.8 µM).
Take `NNC(=O)c1ccncc1` [ISONIAZID]: the MIC in [4] was 0.24 µg/mL (≈ 1.75 µM). Also, in [3], the inhibition entry is “Active”.
As to `Clc1ccc(-n2cc(CNC3CCCCC3)nn2)cc1`, the MIC in data set [4] was over 25 µg/mL.
For `Clc1ccc(-n2cc(CNCc3ccccc3)nn2)cc1`, the MIC in data set [4] is over 25 µg/mL.
Same read-out and setting: in the case of `Cc1nn(-c2ccccc2)c(C)c1CNC1CCCCC1` it was over 25 µg/mL.
For `Cc1cc(CNCC2CCCCC2)c(C)n1-c1ccc(Cl)cc1`, the Activity entry in data set [7] and in data set [8] was “Non-Toxic” throughout. Besides, in data set [5], the selectivity ratio fell in the range of 39 to 195. Further, the GI50 at 48 h in data set [6] turned out to be 11.7 µg/mL (≈ 35.4 µM). Besides, the MIC is 0.06 to 0.3 µg/mL (≈ 0.181 to 0.907 µM) in [4], 3.9 µg/mL (≈ 11.8 µM) in data set [10] and 1.95 µg/mL (≈ 5.89 µM) in data set [11]. In addition, in data set [9], the result was Active. The inhibition result in data set [3] is “Active”.
Regarding `CO[C@H]1/C=C/O[C@@]2(C)Oc3c(C)c(O)c4c(O)c(c(/C=N/N5CCN(C)CC5)c(O)c4c3C2=O)NC(=O)/C(C)=C\C=C\[C@H](C)[C@H](O)[C@@H](C)[C@@H](O)[C@@H](C)[C@H](OC(C)=O)[C@@H]1C` [RIFAMPIN], the MIC in [4] was over 0.06 µg/mL.
With `Cc1cc(CNC2CCCCC2)c(C)n1-c1ccc(C(C)C)cc1`, the selectivity ratio in data set [5] lay within 23 to 48. Moreover, in [6], the GI50 at 48 h was 5.8 µg/mL (≈ 17.9 µM). In addition, in data set [4], the MIC is 0.12 to 0.25 µg/mL (≈ 0.37 to 0.77 µM).
On to `Clc1ccc2nc(CNCc3ccccc3)cn2c1`, for which the MIC in data set [4] is over 25 µg/mL.
